Target: T1, human FXR (Homo sapiens, UniProt Q96RI1)
T1 construct: expressed in transfected cells; host or cells: HEK293 cells stably carrying a 5xGal4-response-element firefly luciferase reporter, transiently transfected with pcDNA3.1-Gal4-FXR
T1 sequence (Q96RI1 262-486 limits assumed): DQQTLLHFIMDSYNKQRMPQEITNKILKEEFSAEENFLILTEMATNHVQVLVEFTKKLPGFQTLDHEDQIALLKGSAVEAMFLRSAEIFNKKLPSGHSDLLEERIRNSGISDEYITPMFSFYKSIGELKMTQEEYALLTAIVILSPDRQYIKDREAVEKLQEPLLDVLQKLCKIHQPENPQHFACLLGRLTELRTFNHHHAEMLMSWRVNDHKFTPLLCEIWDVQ
Test: transient human FXR/Gal4-luciferase reporter assay
Type: cell-based
Conditions: Gal4-hFXR LBD fusion, luciferase reporter in HEK293 cells; response relative to 8 μM GW-4064
Summary of the method: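 HEK293 cells stably carrying a 5×Gal4-response-element firefly luciferase reporter were transiently transfected with Gal4-hFXR. They were then incubated overnight at 37 °C with compound serial dilutions in medium containing 10% charcoal/dextran-stripped FBS. Luminescence was read after Steady-Glo addition.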

Row | Compound | EC50
1 | Cn1nc(C2CC2)cc1C12CCC(CN(C(=O)C3CCOCC3)c3cccc(-c4ccc(S(C)(=O)=O)cc4)c3)(CC1)CC2 [Example 134, N-((4-(3-cyclopropyl-1-methyl-1H-pyrazol-5-yl)bicyclo[2.2.2]octan-1-yl)methyl)-N-(4′-(methylsulfonyl)-[1,1′-biphenyl]-3-yl)tetrahydro-2H-pyran-4-carboxamide] | 511 nM
2 | O=C(C1CCOCC1)N(CC12CCC(c3nc(C4CC4)no3)(CC1)CC2)c1cccc(-c2cnc(C3CC3)o2)c1 [Example 23, N-((4-(3-cyclopropyl-1,2,4-oxadiazol-5-yl)bicyclo[2.2.2]octan-1-yl)methyl)-N-(3-(2-cyclopropyloxazol-5-yl)phenyl)tetrahydro-2H-pyran-4-carboxamide] | 74 nM
3 | CCOc1ccc(-c2cc(N(CC34CCC(c5noc(C(C)(F)F)n5)(CC3)CC4)C(=O)C3CCC(O)(C(F)(F)F)CC3)ccc2F)cc1 (single isomer, unassigned) [Example 165, N-((4-(5-(1,1-difluoroethyl)-1,2,4-oxadiazol-3-yl)bicyclo[2.2.2]octan-1-yl)methyl)-N-(4′-ethoxy-6-fluoro-[1,1′-biphenyl]-3-yl)-4-hydroxy-4-(trifluoromethyl)cyclohexane-1-carboxamide] | 263 nM
4 | O=C(C1CCOCC1)N(CC12CCC(c3nc(CC4CC4)no3)(CC1)CC2)c1cccc(-c2nc(CC3CC3)no2)c1 [Example 41, N-((4-(3-(cyclopropylmethyl)-1,2,4-oxadiazol-5-yl)bicyclo[2.2.2]octan-1-yl)methyl)-N-(3-(3-(cyclopropylmethyl)-1,2,4-oxadiazol-5-yl)phenyl)tetrahydro-2H-pyran-4-carboxamide] | 229 nM
5 | COc1cc(-c2cccc(N(CC34CCC(c5nc(C)no5)(CC3)CC4)C(=O)C3CCCCC3)c2)no1 [Example 11, N-(3-(5-methoxyisoxazol-3-yl)phenyl)-N-((4-(3-methyl-1,2,4-oxadiazol-5-yl)bicyclo[2.2.2]octan-1-yl)methyl)cyclohexanecarboxamide] | 660 nM
6 | O=C(C1CCS(=O)(=O)CC1)N(CC12CCC(c3nc(C4CC4)no3)(CC1)CC2)c1cccc(-c2cc(C3CC3)no2)c1 [Example 152, N-((4-(3-cyclopropyl-1,2,4-oxadiazol-5-yl)bicyclo[2.2.2]octan-1-yl)methyl)-N-(3-(3-cyclopropylisoxazol-5-yl)phenyl)tetrahydro-2H-thiopyran-4-carboxamide 1,1-dioxide] | 662 nM
7 | Cn1nc(C23CCC(CN(C(=O)C4CCCOC4)c4cccc(-c5nc(C6CC6)no5)c4)(CC2)CC3)cc1C1CC1 (racemic) [Example 67, N-(3-(3-cyclopropyl-1,2,4-oxadiazol-5-yl)phenyl)-N-((4-(5-cyclopropyl-1-methyl-1H-pyrazol-3-yl)bicyclo[2.2.2]octan-1-yl)methyl)tetrahydro-2H-pyran-3-carboxamide] | 256 nM
8 | O=C(C1CCOCC1)N(CC12CCC(c3nc(C4CC4)no3)(CC1)CC2)c1cccc(-c2nc(C3CC3)no2)c1 [Example 15, N-((4-(3-cyclopropyl-1,2,4-oxadiazol-5-yl)bicyclo[2.2.2]octan-1-yl)methyl)-N-(3-(3-cyclopropyl-1,2,4-oxadiazol-5-yl)phenyl)tetrahydro-2H-pyran-4-carboxamide] | 134 nM
9 | CC(C)(C)c1noc(C23CCC(CN(C(=O)C4CCC(F)(F)CC4)c4cccc(-c5cc(C6CC6)on5)c4)(CC2)CC3)n1 [Example 159, N-((4-(3-(tert-butyl)-1,2,4-oxadiazol-5-yl)bicyclo[2.2.2]octan-1-yl)methyl)-N-(3-(5-cyclopropylisoxazol-3-yl)phenyl)-4,4-difluorocyclohexane-1-carboxamide] | 78 nM
10 | Cn1nc(C2CC2)cc1C12CCC(CN(C(=O)C3CCS(=O)(=O)CC3)c3cccc(-c4cc(C5CC5)on4)c3)(CC1)CC2 [Example 131, N-((4-(3-cyclopropyl-1-methyl-1H-pyrazol-5-yl)bicyclo[2.2.2]octan-1-yl)methyl)-N-(3-(5-cyclopropylisoxazol-3-yl)phenyl)tetrahydro-2H-thiopyran-4-carboxamide 1,1-dioxide] | 1930 nM
11 | CC1(C)CCCN(C(=O)N(CC23CCC(c4nc(C5CC5)no4)(CC2)CC3)c2cccc(-c3nc(C4CC4)no3)c2)C1 (racemic) [Example 62, N-((4-(3-cyclopropyl-1,2,4-oxadiazol-5-yl)bicyclo[2.2.2]octan-1-yl)methyl)-N-(3-(3-cyclopropyl-1,2,4-oxadiazol-5-yl)phenyl)-3,3-dimethylpiperidine-1-carboxamide] | 3810 nM
12 | CCc1noc(-c2cccc(N(CC34CCC(c5nc(C)no5)(CC3)CC4)C(=O)C3CCCCC3)c2)n1 [Example 3] | 158 nM
13 | CN1CCC(C(=O)N(CC23CCC(c4cc(C5CC5)nn4C)(CC2)CC3)c2cccc(-c3cc(C4CC4)no3)c2)CC1 [Example 140, N-((4-(3-cyclopropyl-1-methyl-1H-pyrazol-5-yl)bicyclo[2.2.2]octan-1-yl)methyl)-N-(3-(3-cyclopropylisoxazol-5-yl)phenyl)-1-methylpiperidine-4-carboxamide] | 2640 nM
14 | CC(C)(C)c1noc(C23CCC(CN(C(=O)C4CCC(F)(F)CC4)c4cccc(-c5cc(C6CC6)no5)c4)(CC2)CC3)n1 [Example 147, N-((4-(3-(tert-butyl)-1,2,4-oxadiazol-5-yl)bicyclo[2.2.2]octan-1-yl)methyl)-N-(3-(3-cyclopropylisoxazol-5-yl)phenyl)-4,4-difluorocyclohexane-1-carboxamide] | 205 nM
15 | O=C(C1CCOCC1)N(CC12CCC(c3nc(CC4CC4)no3)(CC1)CC2)c1cccc(-c2nc(C3CC3)no2)c1 [Example 45, N-(3-(3-cyclopropyl-1,2,4-oxadiazol-5-yl)phenyl)-N-((4-(3-(cyclopropylmethyl)-1,2,4-oxadiazol-5-yl)bicyclo[2.2.2]octan-1-yl)methyl)tetrahydro-2H-pyran-4-carboxamide] | 278 nM
16 | COc1cc(-c2cccc(N(CC34CC(c5nc(C6CCOCC6)no5)(C3)C4)C(=O)C3CCCCC3)c2)ccn1 [Example 97, N-(3-(2-methoxypyridin-4-yl)phenyl)-N-((3-(3-(tetrahydro-2H-pyran-4-yl)-1,2,4-oxadiazol-5-yl)bicyclo[1.1.1]pentan-1-yl)methyl)cyclohexanecarboxamide] | 1710 nM
17 | CC(F)(F)c1nc(C23CCC(CN(C(=O)C4CCC(F)(F)CC4)c4cccc(-c5ccc(OC(F)F)cc5)c4)(CC2)CC3)no1 [Example 111, N-((4-(5-(1,1-difluoroethyl)-1,2,4-oxadiazol-3-yl)bicyclo[2.2.2]octan-1-yl)methyl)-N-(4′-(difluoromethoxy)-[1,1′-biphenyl]-3-yl)-4,4-difluorocyclohexane-1-carboxamide] | 69 nM
18 | CC(F)(F)c1nc(C23CCC(CN(C(=O)C4CCS(=O)(=O)CC4)c4cccc(-c5ccc(OC(F)F)cc5)c4)(CC2)CC3)no1 [Example 110, N-((4-(5-(1,1-difluoroethyl)-1,2,4-oxadiazol-3-yl)bicyclo[2.2.2]octan-1-yl)methyl)-N-(4′-(difluoromethoxy)-[1,1′-biphenyl]-3-yl)tetrahydro-2H-thiopyran-4-carboxamide 1,1-dioxide] | 467 nM
19 | COc1cc(-c2cccc(N(CC34CC(c5nc(C6CC6)no5)(C3)C4)C(=O)C3CCCCC3)c2)ccn1 [Example 96, N-((3-(3-cyclopropyl-1,2,4-oxadiazol-5-yl)bicyclo[1.1.1]pentan-1-yl)methyl)-N-(3-(2-methoxypyridin-4-yl)phenyl)cyclohexanecarboxamide] | 3430 nM
